Counter-ions that a name gives are not always drawn. Like-named read-outs stand apart in the source and are kept apart here.
Experiments:
Assay in all cases: AK assay 384-well format, Prestwick library screening
[1] = tested on: A. baumannii strain 98-37-09; assay type: cell-based, Acinetobacter baumannii; settings: Acinetobacter baumannii, 983709, 3 h, 50 μM final drug concentration
[2] = tested on: E. cloacae; assay type: cell-based, Enterobacter cloacae; settings: Enterobacter cloacae, 3 h, 50 μM final drug concentration
[3] = tested on: S. aureus strain USA300-0114; assay type: cell-based, Staphylococcus aureus; settings: Staphylococcus aureus, USA300, 3 h, 50 μM final drug concentration
[4] = tested on: E. faecium; assay type: cell-based, Enterococcus faecium; settings: Enterococcus faecium, 3 h, 50 μM final drug concentration
[5] = tested on: P. aeruginosa; assay type: cell-based, Pseudomonas aeruginosa; settings: Pseudomonas aeruginosa, 3 h, 50 μM final drug concentration
[6] = tested on: E. coli; assay type: cell-based, Escherichia coli; settings: Escherichia coli, 3 h, 50 μM final drug concentration
[7] = tested on: K. pneumoniae; assay type: cell-based, Klebsiella pneumoniae; settings: Klebsiella pneumoniae, 3 h, 50 μM final drug concentration
[8] = planktonic A. baumannii, positive cutoff 3-fold increase, read-out: AK-based Prestwick library screening result, A. baumannii (fold increase in extracellular AK activity)
[9] = planktonic E. cloacae, positive cutoff 3-fold increase, read-out: AK-based Prestwick library screening result, E. cloacae (fold increase in extracellular AK activity)
[10] = planktonic S. aureus, positive cutoff 3-fold increase, read-out: AK-based Prestwick library screening result, S. aureus (fold increase in extracellular AK activity)
[11] = planktonic E. faecium, positive cutoff 3-fold increase, read-out: AK-based Prestwick library screening result, E. faecium (fold increase in extracellular AK activity)
[12] = planktonic P. aeruginosa, positive cutoff 3-fold increase, read-out: AK-based Prestwick library screening result, P. aeruginosa (fold increase in extracellular AK activity)
[13] = planktonic E. coli, positive cutoff 3-fold increase, read-out: AK-based Prestwick library screening result, E. coli (fold increase in extracellular AK activity)
[14] = planktonic K. pneumoniae, positive cutoff 3-fold increase, read-out: AK-based Prestwick library screening result, K. pneumoniae (fold increase in extracellular AK activity)
[15] = planktonic, cutoff for positive 3-fold increase, read-out: AK-based Prestwick Library Screening Results, A. baumannii (fold increase in extracellular AK activity)
[16] = planktonic, cutoff for positive 3-fold increase, read-out: AK-based Prestwick Library Screening Results, E. cloacae (fold increase in extracellular AK activity)
[17] = planktonic, cutoff for positive 3-fold increase, read-out: AK-based Prestwick Library Screening Results, S. aureus (fold increase in extracellular AK activity)
[18] = planktonic, cutoff for positive 3-fold increase, read-out: AK-based Prestwick Library Screening Results, E. faecium (fold increase in extracellular AK activity)
[19] = planktonic, cutoff for positive 3-fold increase, read-out: AK-based Prestwick Library Screening Results, P. aeruginosa (fold increase in extracellular AK activity)
[20] = planktonic, cutoff for positive 3-fold increase, read-out: AK-based Prestwick Library Screening Results, E. coli (fold increase in extracellular AK activity)
[21] = planktonic, cutoff for positive 3-fold increase, read-out: AK-based Prestwick Library Screening Results, K. pneumoniae (fold increase in extracellular AK activity)
[22] = cutoff for positive-scoring molecules 3-fold increase, read-out: AK-based Prestwick Library Screening Results, A. baumannii (fold increase in extracellular AK activity)
[23] = cutoff for positive-scoring molecules 3-fold increase, read-out: AK-based Prestwick Library Screening Results, E. cloacae (fold increase in extracellular AK activity)
[24] = cutoff for positive-scoring molecules 3-fold increase, read-out: AK-based Prestwick Library Screening Results, S. aureus (fold increase in extracellular AK activity)
[25] = cutoff for positive-scoring molecules 3-fold increase, read-out: AK-based Prestwick Library Screening Results, E. faecium (fold increase in extracellular AK activity)
[26] = cutoff for positive-scoring molecules 3-fold increase, read-out: AK-based Prestwick Library Screening Results, P. aeruginosa (fold increase in extracellular AK activity)
[27] = cutoff for positive-scoring molecules 3-fold increase, read-out: AK-based Prestwick Library Screening Results, E. coli (fold increase in extracellular AK activity)
[28] = cutoff for positive-scoring molecules 3-fold increase, read-out: AK-based Prestwick Library Screening Results, K. pneumoniae (fold increase in extracellular AK activity)
[29] = planktonic, cutoff for positive-scoring molecules 3-fold increase, read-out: AK-based Prestwick Library Screening Results, A. baumannii (fold increase in extracellular AK activity)
[30] = planktonic, cutoff for positive-scoring molecules 3-fold increase, read-out: AK-based Prestwick Library Screening Results, E. cloacae (fold increase in extracellular AK activity)
[31] = planktonic, cutoff for positive-scoring molecules 3-fold increase, read-out: AK-based Prestwick Library Screening Results, S. aureus (fold increase in extracellular AK activity)
[32] = planktonic, cutoff for positive-scoring molecules 3-fold increase, read-out: AK-based Prestwick Library Screening Results, E. faecium (fold increase in extracellular AK activity)
[33] = planktonic, cutoff for positive-scoring molecules 3-fold increase, read-out: AK-based Prestwick Library Screening Results, P. aeruginosa (fold increase in extracellular AK activity)
[34] = planktonic, cutoff for positive-scoring molecules 3-fold increase, read-out: AK-based Prestwick Library Screening Results, E. coli (fold increase in extracellular AK activity)
[35] = planktonic, cutoff for positive-scoring molecules 3-fold increase, read-out: AK-based Prestwick Library Screening Results, K. pneumoniae (fold increase in extracellular AK activity)

CNNCc1ccc(C(=O)NC(C)C)cc1 [Procarbazine hydrochloride]
fold induction at 50 µM [1, 8]: 1.1
fold induction at 50 µM [2, 9]: 1.7
fold induction at 50 µM [3, 10]: 1.1
fold induction at 50 µM [4, 11]: 1
fold induction at 50 µM [5, 12]: 0.9
fold induction at 50 µM [6, 13]: 1
fold induction at 50 µM [7, 14]: 1.1

CN1CCN(CCCN2c3ccccc3Sc3ccc(Cl)cc32)CC1 [Prochlorperazine dimaleate]
fold induction at 50 µM [1, 15]: 1.6
fold induction at 50 µM [2, 16]: 2
fold induction at 50 µM [3, 17]: 1.1
fold induction at 50 µM [4, 18]: 1.1
fold induction at 50 µM [5, 19]: 1.2
fold induction at 50 µM [6, 20]: 1.2
fold induction at 50 µM [7, 21]: 1.2

OC(CCN1CCCC1)(c1ccccc1)C1CCCCC1 (stereo not drawn) [Procyclidine hydrochloride]
fold induction at 50 µM [1, 22]: 1.1
fold induction at 50 µM [2, 23]: 1.8
fold induction at 50 µM [3, 24]: 1.2
fold induction at 50 µM [4, 25]: 1.1
fold induction at 50 µM [5, 26]: 1.2
fold induction at 50 µM [6, 27]: 1.4
fold induction at 50 µM [7, 28]: 0.9

CC(=O)[C@H]1CC[C@H]2[C@@H]3CCC4=CC(=O)CC[C@]4(C)[C@H]3CC[C@]12C [Progesterone]
fold induction at 50 µM [1, 15]: 1.1
fold induction at 50 µM [2, 16]: 1.7
fold induction at 50 µM [3, 17]: 1.1
fold induction at 50 µM [4, 18]: 1.1
fold induction at 50 µM [5, 19]: 1
fold induction at 50 µM [6, 20]: 1
fold induction at 50 µM [7, 21]: 1.1

CCCN(CCC)C(=O)C(CCC(=O)O)NC(=O)c1ccccc1 (stereo not drawn) [Proglumide]
fold induction at 50 µM ([1]; planktonic A. baumannii, 384-well, cutoff for positive-scoring molecules 3-fold increase, read-out: AK-based Prestwick Library Screening Results: A. baumannii (increase in extracellular AK activity)): 1.3
fold induction at 50 µM ([2]; planktonic E. cloacae, 384-well, cutoff for positive-scoring molecules 3-fold increase, read-out: AK-based Prestwick Library Screening Results: E. cloacae (increase in extracellular AK activity)): 1.5
fold induction at 50 µM ([3]; planktonic S. aureus, 384-well, cutoff for positive-scoring molecules 3-fold increase, read-out: AK-based Prestwick Library Screening Results: S. aureus (increase in extracellular AK activity)): 1.1
fold induction at 50 µM ([4]; planktonic E. faecium, 384-well, cutoff for positive-scoring molecules 3-fold increase, read-out: AK-based Prestwick Library Screening Results: E. faecium (increase in extracellular AK activity)): 1
fold induction at 50 µM ([5]; planktonic P. aeruginosa, 384-well, cutoff for positive-scoring molecules 3-fold increase, read-out: AK-based Prestwick Library Screening Results: P. aeruginosa (increase in extracellular AK activity)): 1.1
fold induction at 50 µM ([6]; planktonic E. coli, 384-well, cutoff for positive-scoring molecules 3-fold increase, read-out: AK-based Prestwick Library Screening Results: E. coli (increase in extracellular AK activity)): 1.3
fold induction at 50 µM ([7]; planktonic K. pneumoniae, 384-well, cutoff for positive-scoring molecules 3-fold increase, read-out: AK-based Prestwick Library Screening Results: K. pneumoniae (increase in extracellular AK activity)): 1.2

[H]/N=C(\N/C(=N/[H])Nc1ccc(Cl)cc1)NC(C)C [Proguanil hydrochloride]
fold induction at 50 µM [1, 8]: 0.9
fold induction at 50 µM [2, 9]: 1.1
fold induction at 50 µM [3, 10]: 0.9
fold induction at 50 µM [4, 11]: 0.8
fold induction at 50 µM [5, 12]: 0.8
fold induction at 50 µM [6, 13]: 0.9
fold induction at 50 µM [7, 14]: 0.7

CN(C)CCCN1c2ccccc2Sc2ccccc21 [Promazine hydrochloride]
fold induction at 50 µM [1, 22]: 0.9
fold induction at 50 µM [2, 23]: 1.7
fold induction at 50 µM [3, 24]: 1.4
fold induction at 50 µM [4, 25]: 1
fold induction at 50 µM [5, 26]: 1.1
fold induction at 50 µM [6, 27]: 1.2
fold induction at 50 µM [7, 28]: 0.8

CC(CN1c2ccccc2Sc2ccccc21)N(C)C (stereo not drawn) [Promethazine hydrochloride]
fold induction at 50 µM [1, 29]: 0.6
fold induction at 50 µM [2, 30]: 0.5
fold induction at 50 µM [3, 31]: 0.5
fold induction at 50 µM [4, 32]: 0.8
fold induction at 50 µM [5, 33]: 0.6
fold induction at 50 µM [6, 34]: 0.6
fold induction at 50 µM [7, 35]: 0.5

CC(C)NCC(O)c1ccc2ccccc2c1 (stereo not drawn) [Pronethalol hydrochloride]
fold induction at 50 µM [1, 22]: 0.6
fold induction at 50 µM [2, 23]: 0.9
fold induction at 50 µM [3, 24]: 0.6
fold induction at 50 µM [4, 25]: 0.9
fold induction at 50 µM [5, 26]: 0.6
fold induction at 50 µM [6, 27]: 0.7
fold induction at 50 µM [7, 28]: 0.6

CCCNCC(O)COc1ccccc1C(=O)CCc1ccccc1 (stereo not drawn) [Propafenone hydrochloride]
fold induction at 50 µM ([1]; planktonic A. baumannii, cutoff for positive-scoring molecules 3-fold increase, read-out: AK-based Prestwick Library Screening Results, A. baumannii (increase in extracellular AK activity)): 0.7
fold induction at 50 µM ([2]; planktonic E. cloacae, cutoff for positive-scoring molecules 3-fold increase, read-out: AK-based Prestwick Library Screening Results, E. cloacae (increase in extracellular AK activity)): 0.8
fold induction at 50 µM ([3]; planktonic S. aureus, cutoff for positive-scoring molecules 3-fold increase, read-out: AK-based Prestwick Library Screening Results, S. aureus (increase in extracellular AK activity)): 0.7
fold induction at 50 µM ([4]; planktonic E. faecium, cutoff for positive-scoring molecules 3-fold increase, read-out: AK-based Prestwick Library Screening Results, E. faecium (increase in extracellular AK activity)): 1
fold induction at 50 µM ([5]; planktonic P. aeruginosa, cutoff for positive-scoring molecules 3-fold increase, read-out: AK-based Prestwick Library Screening Results, P. aeruginosa (increase in extracellular AK activity)): 0.7
fold induction at 50 µM ([6]; planktonic E. coli, cutoff for positive-scoring molecules 3-fold increase, read-out: AK-based Prestwick Library Screening Results, E. coli (increase in extracellular AK activity)): 1
fold induction at 50 µM ([7]; planktonic K. pneumoniae, cutoff for positive-scoring molecules 3-fold increase, read-out: AK-based Prestwick Library Screening Results, K. pneumoniae (increase in extracellular AK activity)): 0.6

CC(C)[N+](C)(CCOC(=O)C1c2ccccc2Oc2ccccc21)C(C)C [Propantheline bromide]
fold induction at 50 µM [1, 29]: 1
fold induction at 50 µM [2, 30]: 1.3
fold induction at 50 µM [3, 31]: 0.8
fold induction at 50 µM [4, 32]: 0.8
fold induction at 50 µM [5, 33]: 0.9
fold induction at 50 µM [6, 34]: 0.9
fold induction at 50 µM [7, 35]: 0.8

CCCOc1ccc(C(=O)OCCN(CC)CC)cc1N [Proparacaine hydrochloride]
fold induction at 50 µM [1, 22]: 1.4
fold induction at 50 µM [2, 23]: 1.2
fold induction at 50 µM [3, 24]: 1.2
fold induction at 50 µM [4, 25]: 1
fold induction at 50 µM [5, 26]: 1.1
fold induction at 50 µM [6, 27]: 1.3
fold induction at 50 µM [7, 28]: 1.1
